Patent US8575186B2, “Epiminocycloalkyl[b] indole derivatives as serotonin sub-type 6 (5-HT6) modulators and uses thereof” (Albany Molecular Research, Inc., priority 2009, dated 2013)
Read-outs that look alike come from different tables or passages of the source.

Key:
[1] = biological target: human 5-HT6 receptor (Homo sapiens (Human), UniProt P50406); assay: radioligand binding assay (SPA format), [N-methyl-3H]-LSD; conditions: read-out: human 5HT6 Ki, human 5-HT6 receptor membranes, 10 nM [3H]-LSD
Sequence of human 5-HT6 receptor (P50406 whole entry): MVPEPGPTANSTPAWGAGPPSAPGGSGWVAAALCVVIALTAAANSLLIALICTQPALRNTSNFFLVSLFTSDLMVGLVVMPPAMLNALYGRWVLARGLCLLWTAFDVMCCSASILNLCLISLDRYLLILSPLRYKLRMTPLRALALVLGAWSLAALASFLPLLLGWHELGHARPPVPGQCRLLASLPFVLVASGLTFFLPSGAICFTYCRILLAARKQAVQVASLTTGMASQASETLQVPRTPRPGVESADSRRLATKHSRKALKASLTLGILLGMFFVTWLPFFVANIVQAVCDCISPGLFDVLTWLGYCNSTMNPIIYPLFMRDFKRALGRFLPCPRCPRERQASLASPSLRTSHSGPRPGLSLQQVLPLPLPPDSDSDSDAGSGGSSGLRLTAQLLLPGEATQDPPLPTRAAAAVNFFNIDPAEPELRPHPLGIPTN

Compound | melting point | Ki [1] [nM] | Ki ([1]; hydrochloride) [nM]
Cl.Cn1c2c(c3cc(S(=O)(=O)c4cccc5ccccc45)ccc31)C1CCC(C2)N1 (centres unmarked) [Example 49, 2-(1-Napthyl)sulfonyl-5-methyl-5,6,7,8,9,10-hexahydro-7,10-epiminocyclohepta[b]indole hydrochloride] | 229 to 231 °C | 1.4 | 
CC(C)n1c2c(c3cc(S(=O)(=O)c4ccccc4)ccc31)C1CCC(C2)N1.Cl (centres unmarked) [Example 87, 2-Phenylsulfonyl-5-isopropyl-5,6,7,8,9,10-hexahydro-7,10-epiminocyclohepta[b]indole hydrochloride] | 260 to 265 °C |  | 350
Cl.Cn1c2c(c3cc(S(=O)(=O)c4ccccc4)cc(OCc4ccccc4)c31)C1CCC(C2)N1 (centres unmarked) [Example 86, 2-Phenylsulfonyl-4-benzyloxy-5-methyl-5,6,7,8,9,10-hexahydro-7,10-epiminocyclohepta[b]indole hydrochloride] | 178 to 180 °C | 14 | 
Cl.Cn1c2c(c3cc(S(=O)(=O)c4ccc(F)cc4)ccc31)C1CCC(C2)N1 (centres unmarked) [Example 28, 2-(4-Fluorophenyl)sulfonyl-5-methyl-5,6,7,8,9,10-hexahydro-7,10-epiminocyclohepta[b]indole hydrochloride] | 210 to 214 °C | 60 | 
Cl.Cn1c2c(c3cc(S(=O)(=O)c4ccc(C#N)cc4)ccc31)C1CCC(C2)N1 (centres unmarked) [Example 30, 2-(4-Cyanophenyl)sulfonyl-5-methyl-5,6,7,8,9,10-hexahydro-7,10-epiminocyclohepta[b]indole hydrochloride] | 216 to 218 °C |  | 410
Cc1ccccc1S(=O)(=O)c1ccc2c(c1)c1c(n2C)CC2CCC1N2.Cl (centres unmarked) [Example 52, 2-(2-Methylphenyl)sulfonyl-5-methyl-5,6,7,8,9,10-hexahydro-7,10-epiminocyclohepta[b]indole hydrochloride] | 186 to 188 °C | 11 | 
Cl.Cn1c2c(c3cc(S(=O)(=O)c4ccccc4)cc(Cl)c31)C1CCC(C2)N1 (centres unmarked) [Example 82, 2-Phenylsulfonyl-4-chloro-5-methyl-5,6,7,8,9,10-hexahydro-7,10-epiminocyclohepta[b]indole hydrochloride] | 258 to 264 °C (dec.) | 22 | 
Cl.Cn1c2c(c3cc(S(=O)(=O)c4cccc(O)c4)ccc31)C1CCC(C2)N1 (centres unmarked) [Example 42, 2-(3-Hydroxyphenyl)sulfonyl-5-methyl-5,6,7,8,9,10-hexahydro-7,10-epiminocyclohepta[b]indole hydrochloride] | 208 to 212 °C | 11 | 
Cl.Cn1c2c(c3ccc(S(=O)(=O)c4ccccc4)cc31)C1CCC(C2)N1 (centres unmarked) [Example 91, 3-Phenylsulfonyl-5-methyl-5,6,7,8,9,10-hexahydro-7,10-epiminocyclohepta[b]indole hydrochloride] | 252 to 256 °C | 115 | 
Cl.Cn1c2c(c3cc(S(=O)(=O)c4cccnc4)ccc31)C1CCC(C2)N1 (centres unmarked) [Example 61, 2-(3-Pyridine)sulfonyl-5-methyl-5,6,7,8,9,10-hexahydro-7,10-epiminocyclohepta[b]indole hydrochloride] | 226 to 228 °C | 156 | 
Cl.O=S(=O)(c1ccccc1)c1ccc2c(c1)c1c(n2CCO)CC2CCC1N2 (centres unmarked) [Example 89, 2-Phenylsulfonyl-5-(2-hydroxy)ethyl-5,6,7,8,9,10-hexahydro-7,10-epiminocyclohepta[b]indole hydrochloride] | 185 to 190 °C | 432 | 
Cl.Cn1c2c(c3cc(S(=O)(=O)c4cccc(OC(F)F)c4)ccc31)C1CCC(C2)N1 (centres unmarked) [Example 40, 2-(3-Difluoromethoxyphenyl)sulfonyl-5-methyl-5,6,7,8,9,10-hexahydro-7,10-epiminocyclohepta[b]indole hydrochloride] | 186 to 190 °C (dec.) | 5.8 | 
COc1cccc(S(=O)(=O)c2ccc3c(c2)c2c(n3C)CC3CCC2N3)c1.Cl (centres unmarked) [Example 41, 2-(3-Methoxyphenyl)sulfonyl-5-methyl-5,6,7,8,9,10-hexahydro-7,10-epiminocyclohepta[b]indole hydrochloride] | 186 to 190 °C | 17 | 
CCOc1cc(S(=O)(=O)c2ccccc2)cc2c3c(n(C)c12)CC1CCC3N1.Cl (centres unmarked) [Example 84, 2-Phenylsulfonyl-4-ethoxy-5-methyl-5,6,7,8,9,10-hexahydro-7,10-epiminocyclohepta[b]indole hydrochloride] | 182 to 184 °C |  | 1
Cl.Cn1c2c(c3cc(S(=O)(=O)c4ccc(Cl)cc4)ccc31)C1CCC(C2)N1 (centres unmarked) [Example 51, 2-(4-Chlorophenyl)sulfonyl-5-methyl-5,6,7,8,9,10-hexahydro-7,10-epiminocyclohepta[b]indole hydrochloride] | 310 to 320 °C | 37 | 
Cc1cc(S(=O)(=O)c2ccccc2)cc2c3c(n(C)c12)CC1CCC3N1.Cl (centres unmarked) [Example 71, 2-Phenylsulfonyl-4,5-dimethyl-5,6,7,8,9,10-hexahydro-7,10-epiminocyclohepta[b]indole hydrochloride] | 244 to 248 °C | 3.3 | 

Compound | melting point | Ki [1] [nM] | Ki ([1]; hydrochloride) [nM]
Cc1cc(S(=O)(=O)c2ccc(N)cc2)cc2c3c(n(C)c12)CC1CCC3N1.Cl (centres unmarked) [Example 77, 2-(4-Amino-phenyl)sulfonyl-4,5-dimethyl-5,6,7,8,9,10-hexahydro-7,10-epiminocyclohepta[b]indole hydrochloride] | 244 to 246 °C | 4.9 | 
Cl.Cn1c2c(c3cc(S(=O)(=O)c4cccc(F)c4)ccc31)C1CCC(C2)N1 (centres unmarked) [Example 35, 2-(3-Fluorophenyl)sulfonyl-5-methyl-5,6,7,8,9,10-hexahydro-7,10-epiminocyclohepta[b]indole hydrochloride] | 240 to 245 °C | 4.2 | 
Cc1cc(S(=O)(=O)c2cccc(OC(F)(F)F)c2)cc2c3c(n(C)c12)CC1CCC3N1.Cl (centres unmarked) [Example 76, 2-(3-Trifluoromethoxy-phenyl)sulfonyl-4,5-dimethyl-5,6,7,8,9,10-hexahydro-7,10-epiminocyclohepta[b]indole hydrochloride] | 220 to 222 °C | 6.9 | 
CCn1c2c(c3cc(S(=O)(=O)c4ccccc4)ccc31)C1CCC(C2)N1.Cl (centres unmarked) [Example 90, 2-Phenylsulfonyl-5-ethyl-5,6,7,8,9,10-hexahydro-7,10-epiminocyclohepta[b]indole hydrochloride] | 200 to 204 °C (dec.) | 52 | 
Cl.Cn1c2c(c3cc(S(=O)(=O)c4ccc(O)cc4)ccc31)C1CCC(C2)N1 (centres unmarked) [Example 32, 2-(4-Hydroxyphenyl)sulfonyl-5-methyl-5,6,7,8,9,10-hexahydro-7,10-epiminocyclohepta[b]indole hydrochloride] | 210 to 212 °C | 11 | 
CN1C2CCC1c1c(n(C)c3ccc(S(=O)(=O)c4ccsc4)cc13)C2.Cl (centres unmarked) [Example 70, 2-(3-thienyl)sulfonyl-5-methyl-5,6,7,8,9,10-hexahydro-7,10-N-methyl-epiminocyclohepta[b]indole hydrochloride] | 238 to 240 °C | 8.2 | 
Cc1cccc(S(=O)(=O)c2ccc3c(c2)c2c(n3C)CC3CCC2N3)c1.Cl (centres unmarked) [Example 37, 2-(3-Methylphenyl)sulfonyl-5-methyl-5,6,7,8,9,10-hexahydro-7,10-epiminocyclohepta[b]indole hydrochloride] | 194 to 196 °C | 3.7 | 
Cl.O=S(=O)(c1ccccc1)c1ccc2c(c1)c1c(n2-c2ccccc2)CC2CCC1N2 (centres unmarked) [Example 88, 2-Phenylsulfonyl-5-phenyl-5,6,7,8,9,10-hexahydro-7,10-epiminocyclohepta[b]indole hydrochloride] | 195 to 200 °C | 350 | 
Cl.Cn1c2c(c3cc(S(=O)(=O)c4ccccc4)cc(F)c31)C1CCC(C2)N1 (centres unmarked) [Example 81, 2-(Phenylsulfonyl)-4-fluoro-5-methyl-5,6,7,8,9,10-hexahydro-7,10-epiminocyclohepta[b]indole hydrochloride] | 251 to 256 °C (dec.) | 13 | 
Cl.Cn1c2c(c3cc(S(=O)(=O)n4cc(Cl)c5ccccc54)ccc31)C1CCC(C2)N1 (centres unmarked) [Example 67, 2-[1-(3-Chloro)-indole]sulfonyl-5-methyl-5,6,7,8,9,10-hexahydro-7,10-epiminocyclohepta[b]indole hydrochloride] | 204 to 206 °C | 4.1 | 
Cl.Cn1c2c(c3cc(S(=O)(=O)c4cccc(N)c4)ccc31)C1CCC(C2)N1 (centres unmarked) [Example 44, 2-(3-Aminophenyl)sulfonyl-5-methyl-5,6,7,8,9,10-hexahydro-7,10-epiminocyclohepta[b]indole hydrochloride] | 220 to 222 °C | 6.3 | 
Cl.Cn1c2c(c3cc(S(=O)(=O)c4cc(Cl)cc(Cl)c4)ccc31)C1CCC(C2)N1 (centres unmarked) [Example 54, 2-(3,5-Dichlorophenyl)sulfonyl-5-methyl-5,6,7,8,9,10-hexahydro-7,10-epiminocyclohepta[b]indole hydrochloride] | 190 to 195 °C | 10 | 
Cl.Cn1c2c(c3cc(S(=O)(=O)c4cncc(F)c4)ccc31)C1CCC(C2)N1 (centres unmarked) [Example 59, 2-[3-(5-Fluoro)-pyridine]sulfonyl-5-methyl-5,6,7,8,9,10-hexahydro-7,10-epiminocyclohepta[b]indole hydrochloride] | 212 to 215 °C | 139 | 
CC(C)Nc1cccc(S(=O)(=O)c2ccc3c(c2)c2c(n3C)CC3CCC2N3)c1.Cl (centres unmarked) [Example 47, 2-[(3-N-Isopropylamino)phenyl]sulfonyl-5-methyl-5,6,7,8,9,10-hexahydro-7,10-epiminocyclohepta[b]indole hydrochloride] | 208 to 212 °C (dec.) | 11 | 
Cl.Cn1c2c(c3cc(S(=O)(=O)c4ccccn4)ccc31)C1CCC(C2)N1 (centres unmarked) [Example 60, 2-(2-Pyridine)sulfonyl-5-methyl-5,6,7,8,9,10-hexahydro-7,10-epiminocyclohepta[b]indole hydrochloride] | 222 to 225 °C | 193 | 
